Test results: US10975037B2 (priority 2018, dated 2021)
Counter-ions that a name gives are not always drawn. Like-named read-outs stand apart in the source and are kept apart here. Marks after values point to notes of the source that are not given here.

Columns and labels:
[1] = molecular target: full-length human RORγt (Homo sapiens (Human), UniProt P51449); assay: RORγt (full-length human) reporter assay, conditions A or B, HEK293T cells; type: cell-based; conditions: for inhibition at 3 µM: 3 μM compound concentration (footnote *)
Outline: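 Dual-luciferase read-out was taken after an overnight (16–20 h) compound exposure. Firefly data were scaled between DMSO-only and saturating reference compound, Renilla-normalized, then plotted against concentration for IC50.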

[2] = molecular target: human RORγt ligand binding domain (RORγt LBD) (Homo sapiens (Human), UniProt P51449); assay: RORγt ThermoFluor® assay (thermal shift binding)
Outline: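 Thermal shift with 0.065 mg/mL RORγt LBD and 60 μM 1,8-ANS in 100 mM Hepes pH 7.0, 10 mM NaCl, 2.5 mM GSH, 0.002% Tween-20.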

[3] = RORγt (FL) Reporter Assay A or B, IC50, HEK293T cells
[4] = read-out: ThermoFluor® Assay, Kd
[5] = HEK-293T, read-out: RORγt (FL) Reporter Assay A or B, % inhibition

Sequence of full-length human RORγt (P51449 other isoform, or with tags, fused parts or gaps): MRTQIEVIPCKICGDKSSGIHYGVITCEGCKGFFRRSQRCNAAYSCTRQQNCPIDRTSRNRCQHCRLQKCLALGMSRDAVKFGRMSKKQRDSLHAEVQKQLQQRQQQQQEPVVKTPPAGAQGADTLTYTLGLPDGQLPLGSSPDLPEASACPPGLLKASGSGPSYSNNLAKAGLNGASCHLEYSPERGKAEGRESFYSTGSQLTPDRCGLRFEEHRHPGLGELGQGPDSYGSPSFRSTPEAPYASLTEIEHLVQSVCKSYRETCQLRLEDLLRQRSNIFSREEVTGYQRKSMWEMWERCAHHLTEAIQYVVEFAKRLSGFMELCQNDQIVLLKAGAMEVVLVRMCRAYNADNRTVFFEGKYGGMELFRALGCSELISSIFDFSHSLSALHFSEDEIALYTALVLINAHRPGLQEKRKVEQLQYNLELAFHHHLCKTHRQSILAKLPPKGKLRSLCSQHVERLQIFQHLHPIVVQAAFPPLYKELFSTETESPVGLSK
Sequence of human RORγt ligand binding domain (RORγt LBD) (P51449 other isoform, or with tags, fused parts or gaps): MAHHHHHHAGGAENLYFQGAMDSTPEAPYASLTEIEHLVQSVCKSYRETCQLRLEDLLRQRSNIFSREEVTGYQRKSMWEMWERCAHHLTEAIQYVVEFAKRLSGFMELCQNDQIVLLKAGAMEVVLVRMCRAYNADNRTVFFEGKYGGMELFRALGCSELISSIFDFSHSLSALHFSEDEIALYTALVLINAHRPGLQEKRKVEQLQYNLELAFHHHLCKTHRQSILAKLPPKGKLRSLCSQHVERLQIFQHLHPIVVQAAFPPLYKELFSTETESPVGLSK

| SMILES | IC50 [1, 3] | Kd [2, 4] | further results |
| --- | --- | --- | --- |
| CCn1nc(C(=O)NC[C@H]2CC[C@H](S(C)(=O)=O)CC2)c(Cl)c1-c1ccc(N[C@H](C)C(F)(F)F)cc1C(C)C [Example 204, 4-Chloro-1-ethyl-5-(2-isopropyl-4-(((R)-1,1,1-trifluoropropan-2-yl)amino)phenyl)-N-(((1r,4R)-4-(methylsulfonyl)cyclohexyl)methyl)-1H-pyrazole-3-carboxamide] | 53 nM | 13 nM | inhibition at 2 µM ([1]; HEK-293T, 2 μM compound concentration, read-out: RORγt (FL) Reporter Assay A or B, % inhibition): 102% |
| CCn1nc(C(=O)NC[C@@H]2CC[C@@H](S(C)(=O)=O)C[NH+]2CC(=O)ON)c(Cl)c1-c1ccc(CC(C)(C)C(F)(F)F)cc1OC(F)F (stereo in doubt) [Example 63, N-(((2S*,5R*)-1-(2-(Aminooxy)-2-oxoethyl)-5-(methylsulfonyl)piperidin-2-yl)methyl)-4-chloro-5-(2-(difluoromethoxy)-4-(3,3,3-trifluoro-2,2-dimethylpropyl)phenyl)-1-ethyl-1H-pyrazole-3-carboxamide Trifluoroacetic Acid Salt] | 8 nM | – | inhibition at 3 µM [1, 5]: 109%; Kd ([2]; ThermoFluor® Assay, Kd): 1 nM |
| CCn1nc(C(=O)NC[C@]2(O)CC[C@@H](S(C)(=O)=O)CC2)c(C(F)(F)F)c1-c1ccc(N[C@H](C)C(F)(F)F)cc1OC [Example 217, 1-Ethyl-N-(((1s,4S)-1-hydroxy-4-(methylsulfonyl)cyclohexyl)methyl)-5-(2-methoxy-4-(((R)-1,1,1-trifluoropropan-2-yl)amino)phenyl)-4-(trifluoromethyl)-1H-pyrazole-3-carboxamide] | – | 17 nM | RORγt (FL) Reporter Assay A or B, % inhibition ([1]; 1 μM compound concentration (footnote ***)): 104*** %; IC50 ([1]; HEK293T cells, read-out: RORγt (FL) Reporter Assay A or B, IC50): 13 nM |
| CCn1nc(C(=O)NC[C@]2(O)CC[C@@H](S(C)(=O)=O)CC2)c(C)c1-c1ccc(CCCC(F)(F)F)cc1OC [Example 83, 1-Ethyl-N-(((1s,4s)-1-hydroxy-4-(methylsulfonyl)cyclohexyl)methyl)-5-(2-methoxy-4-(4,4,4-trifluorobutyl)phenyl)-4-methyl-1H-pyrazole-3-carboxamide] | 33 nM | 11 nM | inhibition at 0.67 µM ([1]; HEK-293T, 0.67 μM compound concentration (footnote ****), read-out: RORγt (FL) Reporter Assay A or B, % inhibition): 87% |
| CCn1nc(C(=O)NC[C@]2(O)CC[C@@H](S(C)(=O)=O)CC2)c(Cl)c1-c1ccc(C(O)CCC(F)(F)F)cc1OC(F)F (some centres unmarked) [Example 98, 4-Chloro-5-(2-(difluoromethoxy)-4-(4,4,4-trifluoro-1-hydroxybutyl)phenyl)-1-ethyl-N-(((1s,4s)-1-hydroxy-4-(methylsulfonyl)cyclohexyl)methyl)-1H-pyrazole-3-carboxamide] | 71 nM | 310 nM | inhibition at 3 µM [1, 5]: 89% |
| CCn1nc(C(=O)NC[C@@H]2CC[C@@H](S(C)(=O)=O)C[C@H]2O)c(Cl)c1-c1ccc(CC(C)(C)C(F)(F)F)cc1OC(F)F (single isomer, unassigned) [Example 22, 4-Chloro-5-(2-(difluoromethoxy)-4-(3,3,3-trifluoro-2,2-dimethylpropyl)phenyl)-1-ethyl-N-(((1S*,2R*,4R*)-2-hydroxy-4-(methylsulfonyl)cyclohexyl)methyl)-1H-pyrazole-3-carboxamide] | 4.2 nM | – | inhibition at 1 µM ([1]; HEK-293T, 1 μM compound concentration (footnote ***), read-out: RORγt (FL) Reporter Assay A or B, % inhibition): 100%; Kd ([2]; ThermoFluor® Assay, Kd): 0.44 nM |
| Cn1nc(C(=O)NC[C@H]2CC[C@H](S(C)(=O)=O)CC2)c(Cl)c1-c1ccc(CC(C)(C)C(F)(F)F)cc1OC(F)F [Example 155, 4-Chloro-5-(2-(difluoromethoxy)-4-(3,3,3-trifluoro-2,2-dimethylpropyl)phenyl)-1-methyl-N-(((1r,4r)-4-(methylsulfonyl)cyclohexyl)methyl)-1H-pyrazole-3-carboxamide] | 4.2 nM | 0.33 nM | – |
| CCOc1cc(N[C@H](C)C(F)(F)F)ccc1-c1c(Cl)c(C(=O)NC[C@H]2CC[C@H](S(C)(=O)=O)CC2)nn1CC [Example 205, 4-Chloro-5-(2-ethoxy-4-(((R)-1,1,1-trifluoropropan-2-yl)amino)phenyl)-1-ethyl-N-(((1r,4R)-4-(methylsulfonyl)cyclohexyl)methyl)-1H-pyrazole-3-carboxamide] | 29 nM | 5.4 nM | inhibition at 2 µM [1, 5]: 104% |
